“And” between values parts separate entries of the source, which are not always exact repeats. Equal entries are not always repeated.
Experiments:
[1] = tested on: Male Harlan Sprague-Dawley rats; assay: Development of epilepsy after status epilepticus (SE) induced by electrical stimulation of the amygdala; chronic treatment started 1 wk after SE; type: in vivo; settings: for Number of animals with mild (≦1 seizure/day) epilepsy, during treatment / Number of animals with severe (>1 seizure/day) epilepsy, during treatment / Number of animals with mild (≦1 seizure/day) epilepsy, All / Number of animals with severe (>1 seizure/day) epilepsy, All / Number of animals with mild (≦1 seizure/day) epilepsy, after treatment / Number of animals with severe (>1 seizure/day) epilepsy, after treatment: rats after SE; for Number of animals with mild (≦1 seizure/day) epilepsy, during treatment / Number of animals with severe (>1 seizure/day) epilepsy, during treatment: atipamezole 100 μg/kg/h s.c. minipump for 9 wk starting 1 wk after SE, DZP 20 mg/kg i.p. at 3 h after beginning of SE; for Number of animals with severe (>1 seizure/day) epilepsy, during treatment: animals/epileptic animals; for Number of animals with mild (≦1 seizure/day) epilepsy, All / Number of animals with severe (>1 seizure/day) epilepsy, All: both follow-ups (All); for Number of animals with mild (≦1 seizure/day) epilepsy, after treatment / Number of animals with severe (>1 seizure/day) epilepsy, after treatment: follow-up after the 9 wk treatment
Method: To mimic the clinical environment, α2-adrenoceptor antagonist treatment with atipamezole was started 1 wk after induction of status epilepticus (SE) with subcutaneous Alzet minipumps and continued for 9 wk. Two independent studies were carried out.
Male Harlan Sprague-Dawley rats (300-350 g; Netherlands) were used in this study. After implantation of electrodes, rats were housed in individual cages at a temperature of 19-21° C., with humidity at 50-60% and lights on 7.00-19.00. Standard food pellets and water were freely available.
The animals were anaesthetized with an intraperitoneal injection of sodium pentobarbital (60 mg/kg) and chloral hydrate (60 mg/kg) and inserted into a stereotaxic frame (lambda and bregma at the same horizontal level). A pair of stimulating electrodes (0.5 mm tip separation) was implanted into the lateral nucleus of the left amygdala (3.6 mm posterior, 5.0 mm lateral, and 6.5 mm ventral to bregma). One stainless steel screw was inserted into the skull above the right frontal cortex and served as cortical electrode (3 mm anterior to the bregma, 2 mm lateral to midline). Two stainless steel screws were inserted into the skull bilaterally over the cerebellum, which served as indifferent and ground electrodes. The electrodes were fixed with dental acrylate. The rats were allowed to recover from surgical operation for 14 d, after which electrical stimulation was initiated.
After discharge threshold was assessed by stimulating the amygdala with a one-second train of one-msec bipolar square-wave pulses (60 Hz, 50-400 μA peak to peak). Only those rats in which after discharges could be induced at 400 μA or at lower current level were included in the study.
To induce SE, the amygdala was stimulated repeatedly at 500 msec intervals with a train of pulses lasting 100 msec (1 msec 60 Hz bipolar pulses at 400 μA peak to peak). […] Once the criterion of SE was achieved, no further stimulation was given. After 3 h, SE was terminated by injecting diazepam 20 mg/kg (i.p.).
Vehicle (0.9% saline, Natrosteril 9 mg/ml, Baxter, Vantaa, Finland) was administered via subcutaneous Alzet minipumps with a pumping rate of 9.15 μl/h in 1-wk and 2.61 μl/h in 8-wk pumps starting 1 wk after stimulation. Minipumps were implanted subcutaneously to the back between the scapulae according to the instructions provided by manufacturer. For implantation, animals were anesthetized with an intraperitoneal injection of sodium pentobarbital (60 mg/kg) and chloral hydrate (60 mg/kg).
Diazepam was administered at 3 h after the beginning of SE (20 mg/kg, i.p.). Atipamezole treatment was started 1 wk after SE. Compound was administered with subcutaneous Alzet osmotic minipumps and continued for 9 wk. Atipamezole was dissolved into sterile 0.9% NaCl. The concentration of atipamezole was adjusted according to the weight of the rat and pumping rate to obtain a constant flow-rate of 100 μg/kg/h.
• DZP (diazepam)+vehicle (n=11): Rats with SE treated with DZP (20 mg/kg, i.p.) at 3 h after the beginning of SE. Chronic treatment with vehicle (0.9% NaCl, subcutaneous Alzet minipumps) for 9 wk starting 1 wk after SE. • DZP+atipamezole (n=7): Rats with SE treated with DZP (20 mg/kg, i.p.) at 3 h after the beginning of SE. Chronic treatment with atipamezole (100 μg/kg/h, subcutaneous Alzet minipumps) for 9 wk starting 1 wk after SE.
Controls (n=9): Operated, non-stimulated and non-treated controls.
Ø+vehicle (n=11): No treatment at 3 h after the beginning of SE. Chronic treatment with vehicle (0.9% NaCl in subcutaneous Alzet minipump) for 9 wk starting 1 wk after SE.
DZP+vehicle (n=10): Diazepam treatment (20 mg/kg, i.p.) at 3 h after the beginning of SE. Chronic treatment with vehicle (0.9% NaCl in subcutaneous Alzet minipump) for 9 wk starting 1 wk after SE.
Ø+atipamezole (n=10). No treatment at 3 h after the beginning of SE. Chronic treatment with atipamezole (100 μg/kg/h, subcutaneous Alzet minipumps) for 9 wk starting 1 wk after SE.
DZP+atipamezole (n=12). […]

kainate-induced seizures = settings: acute administration; Halonen T. et al., Brain Res 1995; cited from earlier work
alpha2-adrenoceptor = settings: background statement, no species differences (human and rodent); cited from earlier work
cortical excitability = settings: oral administration, humans; Plewnia C et al., Neurosci Lett 2001; cited from earlier work
[2] = listed as Ø + atipamezole, hydrochloride
[3] = listed as Ø/DZP + atipamezole, hydrochloride

CN1C(=O)CN=C(c2ccccc2)c2cc(Cl)ccc21 [DZP + vehicle]
Rats with >1 seizure/day ([1]; data combined from the two studies): 50% | Number of animals with mild (≦1 seizure/day) epilepsy, during treatment [1]: 1/4 and 6/10 | Number of animals with severe (>1 seizure/day) epilepsy, during treatment [1]: 3/4 and 4/10 | Number of animals with mild (≦1 seizure/day) epilepsy, All [1]: 2/4 and 5/10 | Number of animals with severe (>1 seizure/day) epilepsy, All [1]: 2/4 and 5/10 | Number of animals with mild (≦1 seizure/day) epilepsy, after treatment [1]: 1/3 and 5/9 | Number of animals with severe (>1 seizure/day) epilepsy, after treatment [1]: 2/3 and 4/9

CCC1(c2c[nH]cn2)Cc2ccccc2C1.Cl [atipamezole, 4-(2-ethyl-2,3-dihydro-1H-inden-2-yl)-1H-imidazole hydrochloride]
Effect on kainate-induced seizures (kainate-induced seizures): proconvulsant effect | Number of animals with severe (>1 seizure/day) epilepsy, during treatment [1, 2]: 1/8 | Number of animals with severe (>1 seizure/day) epilepsy, during treatment [1, 3]: 1/20 | Number of animals with mild (≦1 seizure/day) epilepsy, during treatment [1, 2]: 7/8 | Number of animals with mild (≦1 seizure/day) epilepsy, during treatment [1, 3]: 19/20 | Number of animals with mild (≦1 seizure/day) epilepsy, All [1, 2]: 7/8 | Number of animals with severe (>1 seizure/day) epilepsy, All [1, 2]: 1/8 | Number of animals with mild (≦1 seizure/day) epilepsy, All [1, 3]: 21/22 | Number of animals with severe (>1 seizure/day) epilepsy, All [1, 3]: 1/22 | Number of animals with mild (≦1 seizure/day) epilepsy, after treatment [1, 2]: 6/7 | Number of animals with severe (>1 seizure/day) epilepsy, after treatment [1, 2]: 1/7 | Number of animals with mild (≦1 seizure/day) epilepsy, after treatment [1, 3]: 19/20 | Number of animals with severe (>1 seizure/day) epilepsy, after treatment [1, 3]: 1/20 | Effect on epileptogenesis ([1]; summary statement, epilepsy that develops is milder and can be non-progressive): clear disease-modifying effect on epileptogenesis | alpha2/alpha1-selectivity ratio (alpha2-adrenoceptor): high

COC(=O)[C@@H]1[C@H]2C[C@H]3c4[nH]c5ccccc5c4CCN3C[C@@H]2CC[C@@H]1O [yohimbine]
Cortical excitability induced by transcranial magnetic stimulation (cortical excitability): increased cortical excitability

— US20080207719A1, “Treatment of Epilepsy” (ORION CORPORATION, priority 2003, published 2008)
